Biological target: T1, YlLac (Yarrowia lipolytica, UniProt G1C1M2)
T1 construct: ORF 519 residues incl; 19-residue native signal (abstract instead calls the mature protein 519 aa); expressed without native signal behind alpha-factor signal (pPICZalphaA-Wsp-YlLac) in Pichia pastoris KM71H; forward primer GCCATTGGCCCGGTGACC encodes AIGPVT; monomer, glycosylated ~67-68 kDa, ~55 kDa after endoH
T1 sequence (G1C1M2 20-519): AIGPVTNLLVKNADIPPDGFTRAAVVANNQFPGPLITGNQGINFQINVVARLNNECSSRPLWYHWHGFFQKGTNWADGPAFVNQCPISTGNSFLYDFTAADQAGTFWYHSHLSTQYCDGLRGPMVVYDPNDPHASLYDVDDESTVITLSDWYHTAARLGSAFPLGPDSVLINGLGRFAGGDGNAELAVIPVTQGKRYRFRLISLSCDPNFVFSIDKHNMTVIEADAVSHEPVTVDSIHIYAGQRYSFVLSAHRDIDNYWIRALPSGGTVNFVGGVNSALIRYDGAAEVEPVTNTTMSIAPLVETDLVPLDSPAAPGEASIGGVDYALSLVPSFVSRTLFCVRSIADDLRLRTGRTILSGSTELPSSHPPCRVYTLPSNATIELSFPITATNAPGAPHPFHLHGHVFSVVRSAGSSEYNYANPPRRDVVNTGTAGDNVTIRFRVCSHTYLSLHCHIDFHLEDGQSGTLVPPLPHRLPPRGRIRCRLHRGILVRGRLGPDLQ
Assay: biochemical
Parameters: spectrophotometric ABTS oxidation by purified recombinant YlLac with inhibitor, 50 mM sodium acetate pH 4.8
Details: 0.1 mM ABTS, pH 4.8, read-out: % of control remaining; for remaining activity at 100 µM: 0.1 mM; for remaining activity at 500 µM: 0.5 mM; for remaining activity at 1000 µM: 1 mM
Experimental: Sodium dodecyl sulfate polyacrylamide gel electrophoresis (SDS-PAGE; 12% w/v polyacrylamide) was performed as described by Laemmli. The native molecular mass was determined by applying samples to a calibrated Sephacryl S-300 HR 16/60 column as recommended by the supplier (GE Healthcare). Purified recombinant YlLac was treated with endoglycosidase H (NEB, Biolabs UK) according to the manufacturer's protocol. YlLac (6 μg) in 1× glycoprotein denaturing buffer was boiled for 10 min. After cooling, 1 μl of endoglycosidase H was added and the sample was incubated at 37°C overnight. The product of endoglycosidase H treatment was analyzed by SDS-PAGE. Protein bands were stained with Coomassie brilliant blue R-250 (Sigma). The zymogram process was carried out using native PAGE, and the enzyme band was visualized by incubating the gel in 50 mM sodium acetate buffer (pH 4.8) containing 0.1 mM ABTS and 2,6-DMP at room temperature. The UV-vis absorption spectrum of purified laccase was recorded at 25°C on a spectrophotometer (Shimadzu, model UV-1800, Tokyo) in 2 cm path length quartz cells. The effects of pH on laccase activity for various substrates were tested at pH 2–6 in 50 mM citrate-phosphate buffer (pH 2–4) or 50 mM sodium-acetate buffer (pH 4–6). The activity of purified laccase towards the ABTS substrate was examined at 20–80°C at the optimal pH value. The rates of substrate oxidation were determined by measuring the absorbance increases at the respective wavelengths, and the molar extinction coefficients (ε) were obtained from the literature. The effects of various inhibitors and metal ions on the activity of purified laccase were determined using assay mixtures (2 ml) containing appropriately diluted enzyme, 50 mM sodium acetate buffer (pH 4.8), and 0.1 mM ABTS with various concentrations of inhibitors or 5 mM metal ions. Laccase activity in the absence of inhibitor or metal ions was defined as 100%. Measurements were carried out in triplicate. K m and V max values of purified YlLac were determined by measuring the activity of the enzyme with various concentrations (0.01–0.1 mM) of ABTS and 2,6-DMP substrates at the optimal condition in each case. Ki A number of compounds were examined for their effects on YlLac activity, including small ions [compound left out], sulfhydryl group-containing redox reagents (L-cysteine and dithiothreitol, […]), denaturants (thiourea), and a chelator (EDTA) (S2 Table). […] Enzyme activity was not observed in the presence of 0.1 mM NaN3. SDS caused partial inhibition and the metal chelating agent EDTA caused no inhibition. Metal ions such as Cr^3+, Mg^2+, and Mn^2+ inhibited 25%, 24%, and 24% of YlLac activity, respectively.

| Structure (SMILES) | remaining activity at 100 µM [%] | remaining activity at 500 µM [%] | remaining activity at 1000 µM [%] |
| --- | --- | --- | --- |
| NC(N)=S [Thiourea] | 91.1 ± 2.1 | 42.2 ± 2 | 12.3 ± 1.5 |
| O[C@@H](CS)[C@@H](O)CS (racemic) [Dithiothreitol] | 61.1 ± 2.4 | 2 ± 0.4 | 0 |
| N[C@@H](CS)C(=O)O [l-Cysteine] | 76.6 ± 2.1 | 11.1 ± 1.5 | 0 |
